Measured values reported in patent US20230045421A1 (priority 2018, published 2023).
Read-outs that look alike come from different tables or passages of the source.

Test system: HBV rcDNA
Assay: HepDE19 assay with bDNA quantitation of HBV rcDNA
Type: cell-based, hepatitis B virus
Conditions: read-out: DE-19bDNA EC50
How it was run: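 Compounds, top concentration 25 μM in 8-point duplicate series, were applied to Tet-free HepDE19 cultures for 7 days. Branched-DNA quantitation of HBV rcDNA against untreated wells gave EC50 and EC90 by 4-parameter fit. Viability (CC50) came from ATP luminescence on parallel plates incubated 4 days.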

[1] = HepDE19 assay, inhibition of formation of rcDNA
[2] = Hepatitis B virus, HepDE19, HepDE19 assay, inhibition of formation of rcDNA
[3] = Hepatitis B virus, HepDE19, HepDE19 assay, inhibition of formation of relaxed circular DNA (rcDNA), bDNA quantitation
[4] = HepDE19 assay, inhibition of formation of relaxed circular DNA (rcDNA), bDNA quantitation

| Compound | EC50 [1] [nM] | EC50 [4] [nM] | further results |
| --- | --- | --- | --- |
| CC(c1c[nH]c(=O)c2ccccc12)N(CC1CCOCC1)C(=O)Nc1ccc(F)c(Cl)c1 (single isomer, unassigned) [Compound 142, 3-(3-Chloro-4-fluorophenyl)-1-(1-(1-oxo-1,2-dihydroisoquinolin-4-yl)ethyl)-1-((tetrahydro-2H-pyran-4-yl)methyl)urea] | 40 |  |  |
| CC(c1c[nH]c(=O)c2ccccc12)N(Cc1nnc[nH]1)C(=O)Nc1ccc(F)c(Cl)c1 (single isomer, unassigned) [Compound 268, 1-((1H-1,2,4-Triazol-5-yl)methyl)-3-(3-chloro-4-fluorophenyl)-1-(1-(1-oxo-1,2-dihydroisoquinolin-4-yl)ethyl)urea] |  |  | EC50 [2]: 2600 nM |
| CC(c1c[nH]c(=O)c2ccccc12)N(CCNCC(F)(F)F)C(=O)Nc1ccc(F)c(Cl)c1 (single isomer, unassigned) [Compound 163, 3-(3-Chloro-4-fluorophenyl)-1-(1-(1-oxo-1,2-dihydroisoquinolin-4-yl)ethyl)-1-(2-((2,2,2-trifluoroethyl)amino)ethyl)urea] | 5300 |  |  |
| CC(c1c[nH]c(=O)c2ccccc12)N(C)C(=O)NC1CCCC1 (single isomer, unassigned) [Compound 299, 3-Cyclopentyl-1-methyl-1-(1-(1-oxo-1,2-dihydroisoquinolin-4-yl)ethyl)urea] |  |  | EC50 [3]: 8600 nM |
| CC(c1c[nH]c(=O)c2ccc(F)cc12)N(CC1COC(C)(C)OC1)C(=O)Nc1ccc(F)c(Cl)c1 (single isomer, unassigned) [Compound 283, 3-(3-Chloro-4-fluorophenyl)-1-((2,2-dimethyl-1,3-dioxan-5-yl)methyl)-1-(1-(6-fluoro-1-oxo-1,2-dihydroisoquinolin-4-yl)ethyl)urea] |  | 43 |  |
| CC(c1c[nH]c(=O)c2cc(F)c(F)cc12)N(C)C(=O)NCc1cc(F)c(F)c(F)c1 (single isomer, unassigned) [Compound 482, 1-(1-(6,7-Difluoro-1-oxo-1,2-dihydroisoquinolin-4-yl)ethyl)-1-methyl-3-(3,4,5-trifluorobenzyl)urea] |  | 11000 |  |
| CC(c1c[nH]c(=O)c2ccc(F)cc12)N(CCS(N)(=O)=O)C(=O)Nc1ccc(F)c(Cl)c1 (single isomer, unassigned) [Compound 381, 2-(3-(3-Chloro-4-fluorophenyl)-1-(1-(6-fluoro-1-oxo-1,2-dihydroisoquinolin-4-yl)ethyl)ureido) ethane-1-sulfonamide] |  | 1400 |  |
| COc1ncc(C(C)N(CCCO)C(=O)Nc2ccc(F)c(Cl)c2)c2ccccc12 (single isomer, unassigned) [Compound 140, 3-(3-Chloro-4-fluorophenyl)-1-(3-hydroxypropyl)-1-(1-(1-methoxyisoquinolin-4-yl)ethyl)urea] |  |  | EC50 [2]: 230 nM |
| CC(c1cn(C)c(=O)c2cc(F)c(F)cc12)N(C)C(=O)Nc1ccc(F)c(Cl)c1 (single isomer, unassigned) [Compound 340, 3-(3-Chloro-4-fluorophenyl)-1-(1-(6,7-difluoro-2-methyl-1-oxo-1,2-dihydroisoquinolin-4-yl)ethyl)-1-methylurea] |  | 4600 |  |
| CNC(=O)N(C)C(C)c1c[nH]c(=O)c2ccccc12 (single isomer, unassigned) [Compound 298, 1,3-Dimethyl-1-(1-(1-oxo-1,2-dihydroisoquinolin-4-yl)ethyl)urea] |  |  | EC50 [3]: 24000 nM |
| COCCCN(C(=O)Nc1ccc(F)c(Cl)c1)C(C)c1c[nH]c(=O)c2ccccc12 (stereo not shown) [Compound 79] | 2100 |  |  |
| CC(c1c[nH]c(=O)c2c(Cl)cccc12)N(C)C(=O)Nc1ccc(F)c(Cl)c1 (single isomer, unassigned) [Compound 167, 1-(1-(8-Chloro-1-oxo-1,2-dihydroisoquinolin-4-yl)ethyl)-3-(3-chloro-4-fluorophenyl)-1-methylurea] | 2400 |  |  |
| CC(c1cn(C)c(=O)c2ccccc12)N(C)C(=O)Nc1ccc(F)c(Cl)c1 (single isomer, unassigned) [Compound 182, 3-(3-Chloro-4-fluorophenyl)-1-methyl-1-(1-(2-methyl-1-oxo-1,2-dihydroisoquinolin-4-yl)ethyl)urea] | 30 |  |  |
